Source: patent publication US20040106545A1, “Compounds and methods for modulating cell adhesion” (priority 1996, published 2004)
Entries after “also recorded” stand apart in the source; their conditions may differ. Read-outs that look alike come from different tables or passages of the source. Each block holds one compound with its values, some of them ahead of it. Positions of bridges follow the written chain, without caps; N, C: chain ends. Residues, ends and D or L forms follow the SMILES beside them.

Key:
MDA-MB231 = experiment: Cytotoxicity, MTT assay, MDA-MB231; format: cell-based, human
In short: (§1)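 Human primary endothelial cells, fibroblast lines (IAFp2, WI-38) and cancer lines (MDA-MB231, PC-3) receive the CHAVC peptide or the CHGVC control at ≤100 μM. Viability is scored by MTT and DNA synthesis by ^3H-thymidine uptake.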

[1] = system: Bovine pulmonary artery endothelial cells; experiment: Disruption of bovine endothelial cell adhesion; format: cell-based; settings: 500 μg/ml, 30 minutes
Method: For use within one such assay, bovine pulmonary artery endothelial cells may be harvested by sterile ablation and digestion in 0.1% collagenase (type II; Worthington Enzymes, Freehold, N.J.). Cells may be maintained in Dulbecco's minimum essential medium supplemented with 10% fetal calf serum and 1% antibiotic-antimycotic at 37° C. in 7% CO2 in air. Cultures may be passaged weekly in trypsin-EDTA and seeded onto tissue culture plastic at 20,000 cells/cm^2. Endothelial cultures may be used at 1 week in culture, which is approximately 3 days after culture confluency is established. The cells may be seeded onto coverslips and treated (e.g., for 30 minutes) with modulating agent or a control compound at, for example, 500 μg/ml and then fixed with 1% paraformaldehyde. As noted above, disruption of cell adhesion may be determined visually within 24 hours, by observing retraction of the cells from one another. This assay evaluates the effect of a modulating agent on N-cadherin mediated cell adhesion.
Bovine pulmonary artery endothelial cells were harvested by sterile ablation and digestion in 0.1% collagenase (type II; Worthington Enzymes, Freehold, N.J.). Cells were maintained in Dulbecco's minimum essential medium (Clonetics, San Diego, Calif.) supplemented with 10% fetal calf serum (Atlantic Biologicals, Nor cross, Ga.) and 1% antibiotic-antimycotic at 37° C. in 7% CO2 in air. Cultures were passaged weekly in trypsin-EDTA (Gibco, Grand Island, N.Y.) and seeded onto tissue culture plastic at 20,000 cells/cm^2 for all experiments. Endothelial cultures were used at 1 week in culture, which is approximately 3 days after culture confluency was established. The cells used in all protocols were between 4th passage and 10th passage. The cells were seeded onto coverslips and treated 30 minutes with N—Ac-CHAVC-NH2 (SEQ ID NO:10) or N—Ac-CHGVC-NH2 (SEQ ID NO:11) at 500 μg/ml and then fixed with 1% paraformaldehyde.

PC-3 = experiment: Cytotoxicity, MTT assay, PC-3; format: cell-based, human
In short: as §1

chick N-cadherin = target: T1, chick N-cadherin (Gallus gallus, UniProt P10288); experiment: Neurite outgrowth of rat cerebellar neurons on N-cadherin expressing 3T3 monolayers (Example 15); format: cell-based; settings: for inhibitory activity on N-cadherin dependent neurite outgrowth, structure/activity statements: Tables 8 and 9; for effect on neurite outgrowth over N-cadherin expressing cells (in words): 500 μg/mL
T1 construct: expressed in transfected cells; host or cells: 3T3 fibroblasts (monolayer); rat post-natal day 2-3 cerebellar neurons plated on top
T1 sequence (P10288 165-912): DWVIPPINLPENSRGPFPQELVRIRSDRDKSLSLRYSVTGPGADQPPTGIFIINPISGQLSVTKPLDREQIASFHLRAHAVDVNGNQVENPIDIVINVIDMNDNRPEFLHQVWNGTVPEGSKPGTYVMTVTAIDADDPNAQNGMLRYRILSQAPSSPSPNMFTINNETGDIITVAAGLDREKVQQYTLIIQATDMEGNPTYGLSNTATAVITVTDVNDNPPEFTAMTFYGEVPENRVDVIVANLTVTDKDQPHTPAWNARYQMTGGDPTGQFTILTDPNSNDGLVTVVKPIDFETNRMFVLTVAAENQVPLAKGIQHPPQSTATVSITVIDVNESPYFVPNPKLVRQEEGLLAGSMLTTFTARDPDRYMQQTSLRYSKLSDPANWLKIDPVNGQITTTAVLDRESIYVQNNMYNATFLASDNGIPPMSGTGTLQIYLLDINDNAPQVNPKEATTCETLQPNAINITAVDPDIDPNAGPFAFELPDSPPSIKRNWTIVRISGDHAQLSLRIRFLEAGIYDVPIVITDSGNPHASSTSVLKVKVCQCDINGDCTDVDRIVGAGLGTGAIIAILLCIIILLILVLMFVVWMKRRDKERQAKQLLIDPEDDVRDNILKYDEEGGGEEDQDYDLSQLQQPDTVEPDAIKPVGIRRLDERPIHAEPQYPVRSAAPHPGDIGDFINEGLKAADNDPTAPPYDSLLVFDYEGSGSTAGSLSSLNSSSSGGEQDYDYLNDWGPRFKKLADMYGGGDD

inhibition of N-cadherin dependent neurite outgrowth (in words) (chick N-cadherin; 250 μg/mL): potent inhibitors of neurite outgrowth
activity on N-cadherin dependent neurite outgrowth (in words) (chick N-cadherin; 125 micrograms/mL or below): lost activity
SMILES: CC[C@H](C)[C@@H]1NC(=O)[C@H](CC(=O)O)NC(=O)[C@H](C(C)C)NC(=O)[C@H](C)NC(=O)[C@H](Cc2c[nH]cn2)NC(=O)[C@H](C)NC(=O)[C@@H](NC(C)=O)CSSC[C@@H](C(N)=O)NC1=O (Ac-CAHAVDIC-NH2; disulfide 1-8)
IC50 (MDA-MB231): > 100 µM
effect on endothelial cell monolayer / morphology ([1]; listed as N—Ac-CAHAVDIC-NH2): neither of the cyclic peptides show activity; also recorded: had no effect on endothelial cell morphology
IC50 (PC-3): > 100 µM
inhibitory activity on N-cadherin dependent neurite outgrowth, structure/activity statements (chick N-cadherin): reduced, but did not eliminate, the activity

SMILES: CC(=O)N[C@H]1CSSC[C@@H](C(N)=O)NC(=O)[C@H](CC(=O)O)NC(=O)[C@H](C(C)C)NC(=O)[C@H](C)NC(=O)[C@H](Cc2c[nH]cn2)NC(=O)[C@H](C)NC1=O [N—Ac—CAHAVDC—NH2, N-Ac-Cys-Ala-His-Ala-Val-Asp-Cys-NH2] (Ac-CAHAVDC-NH2; disulfide 1-7)
IC50 (MDA-MB231): > 100 µM
effect on endothelial cell monolayer / morphology [1]: endothelial cells retracted from one another; also recorded: had a slight effect
IC50 (PC-3): > 100 µM
inhibitory activity on N-cadherin dependent neurite outgrowth, structure/activity statements (chick N-cadherin): completely eliminated inhibitory activity

SMILES: CC(=O)N[C@H]1CSSC[C@@H](C(N)=O)NC(=O)[C@H](C(C)C)NC(=O)[C@H](C)NC(=O)[C@H](Cc2c[nH]cn2)NC1=O [N—Ac—CHAVC—NH2, N-Ac-Cys-His-Ala-Val-Cys-NH2]
IC50 (MDA-MB231; human): > 100 µM
effect on endothelial cell monolayer / morphology [1]: endothelial cells retracted from one another; also recorded: disrupted the endothelial cell monolayer
IC50 (PC-3; human): > 100 µM
effect on neurite outgrowth over N-cadherin expressing cells (in words) (chick N-cadherin): inhibition of neurite outgrowth
effect on the N-cadherin response (chick N-cadherin; concentrations up to 62 μg/ml): no significant effect on the N-cadherin response

effect on neurite outgrowth over N-cadherin expressing cells (in words) (chick N-cadherin): had no effect on neurite outgrowth
SMILES: CC(=O)N[C@H]1CSSC[C@@H](C(N)=O)NC(=O)[C@H](C(C)C)NC(=O)CNC(=O)[C@H](Cc2c[nH]cn2)NC1=O [N—Ac—CHGVC—NH2, reference compound]
IC50 (MDA-MB231): > 100 µM
effect on endothelial cell monolayer / morphology [1]: had no affect on the cells
IC50 (PC-3): > 100 µM
